Reference: patent publication US9670227B2, “Thienopyrimidine derivatives, a process for their preparation and pharmaceutical compositions containing them” (LES LABORATOIRES SERVIER, priority 2013, dated 2017)

Tests used:
[1] = test system: H929 multiple myeloma tumour line; experiment: In vitro cytotoxicity, Microculture Tetrazolium Assay; assay type: cell-based; conditions: Homo sapiens, NCI-H929, 48 h, H929 cells, 48 hours exposure, MTT; read-out: IC50 (μM) MTT H929
Experimental: The cytotoxicity studies were carried out on the H929 multiple myeloma tumour line.
The cells are distributed onto microplates and exposed to the test compounds for 48 hours.

Mcl-1 protein = Mcl-1 protein (UniProtKB primary accession number: Q07820) (Homo sapiens, UniProt Q07820); experiment: Inhibition of Mcl-1 by fluorescence polarisation, Method 1; assay type: binding; conditions: fluorescence polarisation test; Method 2 values are underlined in the patent (underlining not visible here); read-out: IC50 (M) Mcl-1 FP
Summary of the method: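 FP competition, 11-point compound titration in 5% final DMSO; protein and labelled probe at 5 nM and 1 nM final in HEPES/NaCl/Tween 20 buffer, pH 7.4.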

Chain of Mcl-1 protein (Q07820 whole entry): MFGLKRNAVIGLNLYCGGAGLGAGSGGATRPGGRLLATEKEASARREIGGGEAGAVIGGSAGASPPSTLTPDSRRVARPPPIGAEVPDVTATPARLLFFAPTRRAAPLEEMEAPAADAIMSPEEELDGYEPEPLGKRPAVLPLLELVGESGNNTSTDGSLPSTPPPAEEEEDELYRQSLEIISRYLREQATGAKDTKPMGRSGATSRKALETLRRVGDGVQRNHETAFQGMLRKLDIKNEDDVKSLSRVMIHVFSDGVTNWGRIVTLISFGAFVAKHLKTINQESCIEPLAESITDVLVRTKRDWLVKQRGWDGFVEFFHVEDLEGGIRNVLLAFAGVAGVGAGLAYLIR

Row | Compound | IC50 [1] | IC50 (Mcl-1 protein)
1 | COCCOCCOCCOc1ccccc1CC(Oc1ncnc2sc(-c3ccc(F)cc3)c(-c3ccc(OCCN4CCN(C)CC4)c(Cl)c3C)c12)C(=O)O [Example 106, (2R)-2-{[(5Sa)-5-{3-chloro-2-methyl-4-[2-(4-methylpiperazin-1-yl)ethoxy]phenyl}-6-(4-fluorophenyl)thieno[2,3-d]pyrimidin-4-yl]oxy}-3-(2-{2-[2-(2-methoxyethoxy)ethoxy]ethoxy}phenyl)propanoic acid] | 0.195 µM | 1.2e-08 M
2 | COc1ccc(-c2nccc(COc3ccccc3CC(Oc3ncnc4sc(-c5ccc(F)cc5)c(-c5ccc(OCCN6CCN(C)CC6)c(Cl)c5C)c34)C(=O)O)n2)cc1 [Example 107, (2R)-2-{[(5Sa)-5-{3-chloro-2-methyl-4-[2-(4-methylpiperazin-1-yl)ethoxy]phenyl}-6-(4-fluorophenyl)thieno[2,3-d]pyrimidin-4-yl]oxy}-3-(2-{[2-(4-methoxyphenyl)pyrimidin-4-yl]methoxy}phenyl)propanoic acid] | 0.007 µM | 5.3e-09 M
3 | Cc1ccc(-c2nccc(COc3ccccc3CC(Oc3ncnc4sc(-c5ccc(F)cc5)c(-c5ccc(OCCN6CCN(C)CC6)c(Cl)c5C)c34)C(=O)O)n2)cn1 [Example 108, (2R)-2-{[(5Sa)-5-{3-chloro-2-methyl-4-[2-(4-methylpiperazin-1-yl)ethoxy]phenyl}-6-(4-fluorophenyl)thieno[2,3-d]pyrimidin-4-yl]oxy}-3-(2-{[2-(6-methylpyridin-3-yl)pyrimidin-4-yl]methoxy}phenyl)propanoic acid] | 0.007 µM | 3.5e-09 M
4 | Cc1c(-c2c(-c3ccc(F)cc3)sc3ncnc(OC(Cc4ccccc4OCc4ccnc(-c5ccc(C(F)(F)F)nc5)n4)C(=O)O)c23)ccc(OCCN2CCN(C)CC2)c1Cl [Example 109, (2R)-2-{[(5Sa)-5-{3-chloro-2-methyl-4-[2-(4-methylpiperazin-1-yl)ethoxy]phenyl}-6-(4-fluorophenyl)thieno[2,3-d]pyrimidin-4-yl]oxy}-3-[2-({2-[6-(trifluoromethyl)pyridin-3-yl]pyrimidin-4-yl}methoxy)phenyl]propanoic acid] | 0.108 µM | 8.4e-09 M
5 | Cc1c(-c2c(-c3ccc(F)cc3)sc3ncnc(OC(Cc4ccccc4OCc4ccnc(-c5ccc(Cl)nc5)n4)C(=O)O)c23)ccc(OCCN2CCN(C)CC2)c1Cl [Example 110, (2R)-2-{[(5Sa)-5-{3-chloro-2-methyl-4-[2-(4-methylpiperazin-1-yl)ethoxy]phenyl}-6-(4-fluorophenyl)thieno[2,3-d]pyrimidin-4-yl]oxy}-3-(2-{[2-(6-chloropyridin-3-yl)pyrimidin-4-yl]methoxy}phenyl)propanoic acid] | 0.022 µM | 4.3e-09 M
6 | COc1ccc(-c2nccc(COc3ccccc3CC(Oc3ncnc4sc(-c5ccc(F)cc5)c(-c5ccc(OCCN6CCN(C)CC6)c(Cl)c5C)c34)C(=O)O)n2)cn1 [Example 111, (2R)-2-{[(5Sa)-5-{3-chloro-2-methyl-4-[2-(4-methylpiperazin-1-yl)ethoxy]phenyl}-6-(4-fluorophenyl)thieno[2,3-d]pyrimidin-4-yl]oxy}-3-(2-{[2-(6-methoxypyridin-3-yl)pyrimidin-4-yl]methoxy}phenyl)propanoic acid] | 0.008 µM | 3.3e-09 M
7 | COc1cccc(-c2nccc(COc3ccccc3CC(Oc3ncnc4sc(-c5ccc(F)cc5)c(-c5ccc(OCCN6CCN(C)CC6)c(Cl)c5C)c34)C(=O)O)n2)c1 [Example 112, (2R)-2-{[(5Sa)-5-{3-chloro-2-methyl-4-[2-(4-methylpiperazin-1-yl)ethoxy]phenyl}-6-(4-fluorophenyl)thieno[2,3-d]pyrimidin-4-yl]oxy}-3-(2-{[2-(3-methoxyphenyl)pyrimidin-4-yl]methoxy}phenyl)propanoic acid] | 0.011 µM | 5.6e-09 M
8 | Cc1ncccc1-c1nccc(COc2ccccc2CC(Oc2ncnc3sc(-c4ccc(F)cc4)c(-c4ccc(OCCN5CCN(C)CC5)c(Cl)c4C)c23)C(=O)O)n1 [Example 116, (2R)-2-{[(5Sa)-5-{3-chloro-2-methyl-4-[2-(4-methylpiperazin-1-yl)ethoxy]phenyl}-6-(4-fluorophenyl)thieno[2,3-d]pyrimidin-4-yl]oxy}-3-(2-{[2-(2-methylpyridin-3-yl)pyrimidin-4-yl]methoxy}phenyl)propanoic acid] | 0.007 µM | 2.9e-09 M
9 | Cc1c(-c2c(-c3ccc(F)cc3)sc3ncnc(OC(Cc4ccccc4OCc4ccnc(-c5ccnc(Cl)c5)n4)C(=O)O)c23)ccc(OCCN2CCN(C)CC2)c1Cl [Example 119, (2R)-2-{[(5Sa)-5-{3-chloro-2-methyl-4-[2-(4-methylpiperazin-1-yl)ethoxy]phenyl}-6-(4-fluorophenyl)thieno[2,3-d]pyrimidin-4-yl]oxy}-3-(2-{[2-(2-chloropyridin-4-yl)pyrimidin-4-yl]methoxy}phenyl)propanoic acid] | 0.02 µM | 4.8e-09 M
10 | Cc1sccc1-c1nccc(COc2ccccc2CC(Oc2ncnc3sc(-c4ccc(F)cc4)c(-c4ccc(OCCN5CCN(C)CC5)c(Cl)c4C)c23)C(=O)O)n1 [Example 121, (2R)-2-{[(5Sa)-5-{3-chloro-2-methyl-4-[2-(4-methylpiperazin-1-yl)ethoxy]phenyl}-6-(4-fluorophenyl)thieno[2,3-d]pyrimidin-4-yl]oxy}-3-(2-{[2-(2-methylthiophen-3-yl)pyrimidin-4-yl]methoxy}phenyl)propanoic acid] | 0.015 µM | 5.6e-09 M
11 | Cc1cncc(-c2nccc(COc3ccccc3CC(Oc3ncnc4sc(-c5ccc(F)cc5)c(-c5ccc(OCCN6CCN(C)CC6)c(Cl)c5C)c34)C(=O)O)n2)c1 [Example 122, (2R)-2-{[(5Sa)-5-{3-chloro-2-methyl-4-[2-(4-methylpiperazin-1-yl)ethoxy]phenyl}-6-(4-fluorophenyl)thieno[2,3-d]pyrimidin-4-yl]oxy}-3-(2-{[2-(5-methylpyridin-3-yl)pyrimidin-4-yl]methoxy}phenyl)propanoic acid] | 0.01 µM | 3.8e-09 M
12 | Cc1cscc1-c1nccc(COc2ccccc2CC(Oc2ncnc3sc(-c4ccc(F)cc4)c(-c4ccc(OCCN5CCN(C)CC5)c(Cl)c4C)c23)C(=O)O)n1 [Example 124, (2R)-2-{[(5Sa)-5-{3-chloro-2-methyl-4-[2-(4-methylpiperazin-1-yl)ethoxy]phenyl}-6-(4-fluorophenyl)thieno[2,3-d]pyrimidin-4-yl]oxy}-3-(2-{[2-(4-methylthiophen-3-yl)pyrimidin-4-yl]methoxy}phenyl)propanoic acid] | 0.024 µM | 4.3e-09 M
13 | Cc1c(-c2c(-c3ccc(F)cc3)sc3ncnc(OC(Cc4ccccc4OCc4ccn[nH]4)C(=O)O)c23)ccc(OCCN2CCN(C)CC2)c1Cl [Example 125, (2R)-2-{[(5Sa)-5-{3-chloro-2-methyl-4-[2-(4-methylpiperazin-1-yl)ethoxy]phenyl}-6-(4-fluorophenyl)thieno[2,3-d]pyrimidin-4-yl]oxy}-3-[2-(1H-pyrazol-5-ylmethoxy)phenyl]propanoic acid] | 0.354 µM | 7.3e-09 M
14 | Cc1c(-c2c(-c3ccc(F)cc3)sc3ncnc(OC(Cc4ccccc4OCC4CCCO4)C(=O)O)c23)ccc(OCCN(C)C)c1Cl [Example 126, (2R)-2-{[(5Sa)-5-{3-chloro-4-[2-(dimethylamino)ethoxy]-2-methylphenyl}-6-(4-fluorophenyl)thieno[2,3-d]pyrimidin-4-yl]oxy}-3-{2-[(2R)-tetrahydrofuran-2-ylmethoxy]phenyl}propanoic acid] | 0.7 µM | 1.4e-08 M
15 | Cc1c(-c2c(-c3ccc(F)cc3)sc3ncnc(OC(Cc4ccccc4OCC(F)(F)F)C(=O)O)c23)ccc(OCCN(C)C)c1Cl [Example 127, (2R)-2-{[(5Sa)-5-{3-chloro-4-[2-(dimethylamino)ethoxy]-2-methylphenyl}-6-(4-fluorophenyl)thieno[2,3-d]pyrimidin-4-yl]oxy}-3-[2-(2,2,2-trifluoroethoxy)phenyl]propanoic acid] | 0.558 µM | 2e-08 M
16 | Cc1c(-c2c(-c3ccc(F)cc3)sc3ncnc(OC(Cc4ccccc4OCc4ccnc(-c5ccncc5)n4)C(=O)O)c23)ccc(OCCN(C)C)c1Cl [Example 128, (2R)-2-{[(5Sa)-5-{3-chloro-4-[2-(dimethylamino)ethoxy]-2-methylphenyl}-6-(4-fluorophenyl)thieno[2,3-d]pyrimidin-4-yl]oxy}-3-(2-{[2-(pyridin-4-yl)pyrimidin-4-yl]methoxy}phenyl)propanoic acid] | 0.018 µM | 4e-09 M
17 | Cc1c(-c2c(-c3ccc(F)cc3)sc3ncnc(OC(Cc4ccccc4OCc4ccnc(N5CCOCC5)n4)C(=O)O)c23)ccc(OCCN(C)C)c1Cl [Example 129, (2R)-2-{[(5Sa)-5-{3-chloro-4-[2-(dimethylamino)ethoxy]-2-methylphenyl}-6-(4-fluorophenyl)thieno[2,3-d]pyrimidin-4-yl]oxy}-3-(2-{[2-(morpholin-4-yl)pyrimidin-4-yl]methoxy}phenyl)propanoic acid] | 0.069 µM | 2.2e-09 M
18 | CCOc1nccc(COc2ccccc2CC(Oc2ncnc3sc(-c4ccc(F)cc4)c(-c4ccc(OCCN(C)C)c(Cl)c4C)c23)C(=O)O)n1 [Example 130, (2R)-2-{[(5Sa)-5-{3-chloro-4-[2-(dimethylamino)ethoxy]-2-methylphenyl}-6-(4-fluorophenyl)thieno[2,3-d]pyrimidin-4-yl]oxy}-3-{2-[(2-ethoxypyrimidin-4-yl)methoxy]phenyl}propanoic acid] | 0.065 µM | 3.4e-09 M
